# Like-named read-outs stand apart in the source and are kept apart here.
# Legend:
# [1] = pH over time of 0.1 M aqueous solutions of polyhydroxy-lactones (reaction with water to free acid); format: physicochemical; conditions: for pH in aqueous solution: 0.1 M; for pH: 0.1 M (1.78%) aqueous solution
# Source text: In general, because the formulation is to be applied to the skin, it is preferred to have a pH of about three to eight, to minimize irritation, and/or may be in a controlled release formulation, as discussed below. In some cases, an adjustment of the pH of the composition may be desirable because of the tendency of some polyhydroxy-lactones to react with water molecules and form free acid molecules, thereby altering the pH of the overall composition over time until the equilibrium of the reaction has been reached. This lowered pH may cause discomfort to the patient, as the compositions may irritate or sting the skin area when applied. The reaction with water is evidenced by a continued decrease in pH of the solution. As is know in the art, a freshly prepared gluconolactone 1% aqueous solution has pH 3.6. The pH changes to 2.5 after 2 hours. See, The Merck Index, 13th Edition, #4470. […]
# [2] = 1% aqueous solution, cited from earlier work
Compound,pH in aqueous solution ([1]; 1 hour),pH in aqueous solution ([1]; 6 hours),pH in aqueous solution ([1]; 24 hours),pH in aqueous solution ([1]; 48 hours),pH in aqueous solution ([1]; 72 hours),pH in aqueous solution ([1]; fresh),pH ([1]; 0 minutes),pH ([1]; 60 minutes),pH ([1]; 360 minutes),pH ([1]; 4320 minutes),pH ([2]; after 2 hours),pH ([2]; freshly prepared)
"O=C1O[C@H]([C@@H](O)CO)C(O)=C1O [Control, ascorbic acid, reference compound]",2.1,2.1,2.1,2.1,2.1,2.1,–,–,–,–,–,–
O=C1OC[C@@H](O)[C@H]1O [D-erythronolactone],6.3,6.2,5.5,3.2,3.1,6.3,–,–,–,–,–,–
O=C1O[C@H](CO)[C@@H](O)[C@H](O)[C@H]1O [D-gluconolactone],2.0,1.9,1.9,1.9,1.8,2.1,2.1,2.0,1.9,1.8,2.5,3.6
CC1(C)COC(=O)C1O [D-pantolactone],6.5,6.4,5.9,5.7,5.7,6.5,–,–,–,–,–,–
O=C1O[C@H](CO)[C@@H](O)[C@H]1O [D-ribonolactone],6.1,5.9,3.9,2.8,2.6,6.2,–,–,–,–,–,–

# Further lines, with some results ahead:
pH in aqueous solution ([1]; 1 hour),pH in aqueous solution ([1]; 6 hours),pH in aqueous solution ([1]; 24 hours),pH in aqueous solution ([1]; 48 hours),pH in aqueous solution ([1]; 72 hours),pH in aqueous solution ([1]; fresh),pH ([1]; 0 minutes),pH ([1]; 60 minutes),pH ([1]; 360 minutes),pH ([1]; 4320 minutes),Compound,pH ([2]; after 2 hours),pH ([2]; freshly prepared)
5.0,3.9,3.2,2.6,2.4,5.1,–,–,–,–,O=C1O[C@@H]([C@H](O)CO)[C@H](O)[C@H]1O [D-galactonolactone],–,–
5.6,3.9,3.1,2.5,2.3,5.6,–,–,–,–,O=C1O[C@@H]([C@H](O)[C@H](O)CO)[C@@H](O)C1O (stereo partly drawn) [D-glucoheptonolactone],–,–
5.7,4.8,3.4,2.6,2.3,5.7,–,–,–,–,O=C[C@H](O)[C@H]1OC(=O)[C@@H](O)[C@H]1O [D-glucuronolactone],–,–
5.8,4.6,3.5,3.0,2.7,6.2,–,–,–,–,O=C1O[C@@H](C(O)CO)[C@H](O)C1O (stereo partly drawn) [D-gulonolactone],–,–

# Source: patent publication US20040220259A1, “Topical treatment of dermatological disorders associated with reactive or dilated blood vessels” (priority 2003, published 2004)
